For orientation: IC50 means the concentration at which inhibition is half-maximal. Higher therefore signals weaker potency. As usually defined, the inhibition is the relative decrease from the control value, in per cent. A low value points to a response near the control. By half-life is commonly meant how long it takes for the measured level to halve. The term Cmax denotes the peak of the concentration-time curve.

The source of these data is ChEMBL document CHEMBL6182939, “Searching for Synthetic Opioid Rescue Agents. 2: Identification of an Ultra-Potent Synthetic Opioid Rescue Agent” (J Med Chem, 2025).

One series addresses Mu-type opioid receptor (Homo sapiens, UniProt P35372). The format is functional, cell-based, CHO-K1.
For series [1], the target named is T1, Sodium-dependent dopamine transporter (Homo sapiens, UniProt Q01959). Kind of series: Inhibition of Dopamine transporter (unknown origin) assessed as maximal response.
T1 sequence (Q01959 whole entry): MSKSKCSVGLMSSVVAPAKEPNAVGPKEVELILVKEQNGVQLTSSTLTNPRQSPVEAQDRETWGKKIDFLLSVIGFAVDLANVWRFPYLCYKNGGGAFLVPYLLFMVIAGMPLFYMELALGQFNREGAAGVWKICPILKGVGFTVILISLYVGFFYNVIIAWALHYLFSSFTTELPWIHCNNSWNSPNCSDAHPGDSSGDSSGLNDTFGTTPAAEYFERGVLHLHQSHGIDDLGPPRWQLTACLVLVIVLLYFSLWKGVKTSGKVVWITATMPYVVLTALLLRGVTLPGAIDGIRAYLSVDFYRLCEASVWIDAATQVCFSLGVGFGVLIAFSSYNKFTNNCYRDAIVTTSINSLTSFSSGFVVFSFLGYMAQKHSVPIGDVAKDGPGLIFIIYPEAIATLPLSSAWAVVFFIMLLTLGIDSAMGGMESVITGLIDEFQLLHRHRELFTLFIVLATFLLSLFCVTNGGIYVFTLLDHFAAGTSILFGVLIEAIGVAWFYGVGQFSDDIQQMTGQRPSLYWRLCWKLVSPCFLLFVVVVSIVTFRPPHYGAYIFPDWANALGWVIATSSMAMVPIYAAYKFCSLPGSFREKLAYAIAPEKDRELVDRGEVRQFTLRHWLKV
Series [2] deals with Glutamate [NMDA] receptor (Homo sapiens) (UniProt Q05586+Q12879+Q13224+O15399+O60391+Q14957+Q8TCU5). The series is described as follows: Inhibition of NMDA receptor (unknown origin) assessed as maximal response. The format is protein-complex assay.
Series [3] deals with D(2) dopamine receptor (Homo sapiens) (UniProt P14416). The series is described as follows: Antagonist activity at D2S receptor (unknown origin) assessed as maximal response. The settings on record: filed as antagonist.
In series [4] the target is Alpha-1A adrenergic receptor (Homo sapiens) (UniProt P35348). Kind of series: Antagonist activity at alpha1A adrenoreceptor (unknown origin) assessed as maximal response. Conditions: filed as antagonist.
The target in series [5] is T2, Rho-associated protein kinase 1 (Homo sapiens, UniProt Q13464). Kind of series: Inhibition of ROCK1 (unknown origin) assessed as maximal response.
In series [6] the target is T3, Delta-type opioid receptor (Homo sapiens, UniProt P41143). The series is described as follows: Antagonist activity against human DOR expressed in CHO-K1 cells assessed as maximal inhibition of forskolin-induced cAMP accumulation pretreated for 15 mins followed by forskolin addition measured after 30 mins by HitHunter cAMP assay normalized to naltrexone. The format is functional, cell-based. The settings on record: filed as antagonist, time 45.0 min.
T3 sequence (P41143 whole entry): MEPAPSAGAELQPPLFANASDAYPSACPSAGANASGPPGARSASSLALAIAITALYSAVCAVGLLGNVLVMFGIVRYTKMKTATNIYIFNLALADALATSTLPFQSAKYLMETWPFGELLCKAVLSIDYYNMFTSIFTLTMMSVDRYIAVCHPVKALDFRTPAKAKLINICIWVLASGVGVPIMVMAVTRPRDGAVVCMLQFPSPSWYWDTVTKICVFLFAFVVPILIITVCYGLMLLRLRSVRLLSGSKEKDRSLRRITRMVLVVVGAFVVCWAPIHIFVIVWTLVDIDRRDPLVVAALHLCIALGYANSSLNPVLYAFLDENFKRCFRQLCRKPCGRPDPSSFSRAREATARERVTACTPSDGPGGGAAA

The target of series [7] is T4, Sodium-dependent noradrenaline transporter (Homo sapiens, UniProt P23975). Kind of series: Inhibition of Norepinephrine transporter (unknown origin) assessed as maximal response.
T4 sequence (P23975 whole entry): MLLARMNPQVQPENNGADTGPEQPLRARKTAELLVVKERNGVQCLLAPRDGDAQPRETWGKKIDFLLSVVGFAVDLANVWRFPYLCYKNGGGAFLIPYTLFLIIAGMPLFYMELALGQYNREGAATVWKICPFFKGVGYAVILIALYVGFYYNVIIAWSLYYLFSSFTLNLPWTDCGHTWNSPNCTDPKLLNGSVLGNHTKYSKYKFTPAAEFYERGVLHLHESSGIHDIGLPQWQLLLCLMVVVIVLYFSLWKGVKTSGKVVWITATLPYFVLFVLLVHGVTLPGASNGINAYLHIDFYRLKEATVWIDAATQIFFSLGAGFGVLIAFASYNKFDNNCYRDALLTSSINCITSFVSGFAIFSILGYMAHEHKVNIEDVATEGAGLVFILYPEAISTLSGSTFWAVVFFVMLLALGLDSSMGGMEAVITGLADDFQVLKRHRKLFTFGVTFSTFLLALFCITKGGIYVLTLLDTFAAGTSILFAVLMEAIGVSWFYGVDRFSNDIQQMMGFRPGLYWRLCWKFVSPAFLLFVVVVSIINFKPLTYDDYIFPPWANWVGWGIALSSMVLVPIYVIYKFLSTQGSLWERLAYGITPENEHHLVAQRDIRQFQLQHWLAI
In another series the target is hERG (KCNH2) (Homo sapiens, UniProt Q12809). The series is described as follows: Inhibition of hERG channel assessed as maximal response. The format is toxicity. The settings on record: read-out: Imax. (In general: Block of hERG is tested as a sign of cardiac risk.)
Series [8] addresses Voltage-gated inwardly rectifying potassium channel KCNH2 (Homo sapiens, UniProt Q12809). Kind of series: Inhibition of hERG channel. The format is toxicity.
Series [9] concerns the target T1, Sodium-dependent dopamine transporter. The series is described as follows: Inhibition of Dopamine transporter (unknown origin).
Another series deals with Cytochrome P450 2C19 (Homo sapiens, UniProt P33261). Kind of series: (§1) Inhibition of CYP2C19 in human liver microsomes at 10 uM relative to control. Conditions: microsomes, 10 µM. The format is ADME, Microsome.
Chain of Cytochrome P450 2C19 (P33261 whole entry): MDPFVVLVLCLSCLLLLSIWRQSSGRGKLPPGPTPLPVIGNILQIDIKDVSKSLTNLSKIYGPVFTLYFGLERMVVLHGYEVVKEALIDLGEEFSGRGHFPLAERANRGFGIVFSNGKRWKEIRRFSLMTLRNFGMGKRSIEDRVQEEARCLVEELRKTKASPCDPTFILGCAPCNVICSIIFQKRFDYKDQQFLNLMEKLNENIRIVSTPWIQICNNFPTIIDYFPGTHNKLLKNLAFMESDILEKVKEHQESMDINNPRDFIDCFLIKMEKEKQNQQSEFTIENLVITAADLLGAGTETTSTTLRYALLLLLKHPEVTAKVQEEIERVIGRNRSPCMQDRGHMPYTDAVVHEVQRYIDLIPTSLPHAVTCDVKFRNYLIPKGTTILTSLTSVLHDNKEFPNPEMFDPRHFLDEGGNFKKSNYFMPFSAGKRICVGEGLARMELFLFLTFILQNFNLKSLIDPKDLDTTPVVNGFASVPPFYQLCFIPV
The next series deals with Cytochrome P450 2D6 (Homo sapiens, UniProt P10635). Kind of series: (§2) Inhibition of CYP2D6 in human liver microsomes at 10 uM relative to control. The format is ADME, Microsome. The settings on record: microsomes, 10 µM. For orientation: Liver microsomes are vesicles of endoplasmic reticulum, rich in cytochrome P450 enzymes.
Chain of Cytochrome P450 2D6 (P10635 whole entry): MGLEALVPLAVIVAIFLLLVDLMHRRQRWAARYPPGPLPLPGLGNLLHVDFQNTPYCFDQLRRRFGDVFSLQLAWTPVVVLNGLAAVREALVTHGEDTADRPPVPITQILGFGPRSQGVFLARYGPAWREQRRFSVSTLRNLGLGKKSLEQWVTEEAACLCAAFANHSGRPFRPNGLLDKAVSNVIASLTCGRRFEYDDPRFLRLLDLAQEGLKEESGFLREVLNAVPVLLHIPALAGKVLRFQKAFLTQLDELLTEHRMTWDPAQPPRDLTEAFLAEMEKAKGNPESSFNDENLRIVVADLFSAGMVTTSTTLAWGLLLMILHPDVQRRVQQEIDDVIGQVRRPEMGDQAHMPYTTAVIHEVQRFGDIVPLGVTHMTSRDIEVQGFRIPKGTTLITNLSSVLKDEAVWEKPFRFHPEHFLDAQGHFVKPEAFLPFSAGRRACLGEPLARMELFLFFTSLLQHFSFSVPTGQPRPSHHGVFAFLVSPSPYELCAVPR
For series [10], the target named is T4, Sodium-dependent noradrenaline transporter. Kind of series: Inhibition of Norepinephrine transporter (unknown origin).
The next series has as its target Cytochrome P450 3A4 (Homo sapiens, UniProt P08684). The series is described as follows: (§3) Inhibition of CYP3A4 in human liver microsomes at 10 uM relative to control. Conditions: microsomes, 10 µM. The format is ADME, Microsome.
The nature of series [11]: Metabolic stability in mouse liver microsomes assessed as half life. The format is ADME, Microsome. The settings on record: for t1/2: microsomes.
Series [12] concerns the target T2, Rho-associated protein kinase 1. Kind of series: Inhibition of ROCK1 (unknown origin).
In a further series the target is T5, Cytochrome P450 1A2 (Homo sapiens, UniProt P05177).
T5 sequence (P05177 whole entry): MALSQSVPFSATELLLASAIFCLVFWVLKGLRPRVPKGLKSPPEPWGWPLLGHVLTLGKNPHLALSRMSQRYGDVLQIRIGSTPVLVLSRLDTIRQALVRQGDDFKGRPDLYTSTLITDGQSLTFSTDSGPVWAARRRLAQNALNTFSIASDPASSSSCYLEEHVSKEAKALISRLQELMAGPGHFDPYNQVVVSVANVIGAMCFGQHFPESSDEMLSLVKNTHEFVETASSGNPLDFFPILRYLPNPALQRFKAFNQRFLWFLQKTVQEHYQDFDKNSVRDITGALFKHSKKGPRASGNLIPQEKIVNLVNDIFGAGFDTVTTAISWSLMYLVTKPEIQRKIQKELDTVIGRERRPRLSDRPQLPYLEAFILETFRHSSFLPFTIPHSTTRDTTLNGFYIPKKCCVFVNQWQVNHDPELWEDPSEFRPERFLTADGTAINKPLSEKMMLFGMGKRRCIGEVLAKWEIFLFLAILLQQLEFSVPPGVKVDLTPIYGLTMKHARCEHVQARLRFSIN
Kind of series: (§4) Inhibition of CYP1A2 in human liver microsomes at 10 uM relative to control. The settings on record: microsomes, 10 µM. The format is ADME, Microsome.

A short description of series [13]: Metabolic stability in human liver microsomes assessed as half life. The format is ADME, Microsome. The settings on record: for t1/2: microsomes.
Series [14] is described as follows: Metabolic stability in mouse liver microsomes assessed as intrinsic clearance. The format is ADME, Microsome.
Series [15] addresses Glutamate [NMDA] receptor. The series is described as follows: Inhibition of NMDA receptor (unknown origin). The format is protein-complex assay, Homo sapiens.
In series [16] the target is Kappa-type opioid receptor (Homo sapiens, UniProt P41145). The format is functional, cell-based, CHO-K1.
Chain of Kappa-type opioid receptor (P41145 whole entry): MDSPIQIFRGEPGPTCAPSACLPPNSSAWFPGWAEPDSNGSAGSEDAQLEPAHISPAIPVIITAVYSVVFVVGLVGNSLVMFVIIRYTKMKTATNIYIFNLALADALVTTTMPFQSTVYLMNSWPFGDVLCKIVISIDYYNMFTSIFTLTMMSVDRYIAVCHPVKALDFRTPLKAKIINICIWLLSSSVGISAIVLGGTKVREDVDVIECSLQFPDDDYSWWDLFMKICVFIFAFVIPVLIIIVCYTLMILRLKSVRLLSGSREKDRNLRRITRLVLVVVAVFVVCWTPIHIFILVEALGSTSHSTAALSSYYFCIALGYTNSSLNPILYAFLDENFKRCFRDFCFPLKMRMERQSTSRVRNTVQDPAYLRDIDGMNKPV
In the next series the target is Cytochrome P450 2C9 (Homo sapiens, UniProt P11712). The series is described as follows: (§5) Inhibition of CYP2C9 in human liver microsomes at 10 uM relative to control. The format is ADME, Microsome. Conditions: microsomes, 10 µM.
Chain of Cytochrome P450 2C9 (P11712 whole entry): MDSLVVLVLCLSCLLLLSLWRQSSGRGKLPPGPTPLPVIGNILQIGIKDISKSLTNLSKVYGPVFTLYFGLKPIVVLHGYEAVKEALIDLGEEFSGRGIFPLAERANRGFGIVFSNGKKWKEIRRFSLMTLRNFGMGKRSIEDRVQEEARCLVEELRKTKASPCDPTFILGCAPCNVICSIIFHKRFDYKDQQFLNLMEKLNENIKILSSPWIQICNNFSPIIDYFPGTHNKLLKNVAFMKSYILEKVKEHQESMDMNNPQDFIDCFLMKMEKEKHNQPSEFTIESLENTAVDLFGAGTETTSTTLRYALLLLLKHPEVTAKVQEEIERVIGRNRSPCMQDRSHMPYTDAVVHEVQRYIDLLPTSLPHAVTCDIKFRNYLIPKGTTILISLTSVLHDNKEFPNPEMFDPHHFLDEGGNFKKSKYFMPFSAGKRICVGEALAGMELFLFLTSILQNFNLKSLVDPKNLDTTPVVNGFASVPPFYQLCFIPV
In series [17] the target is T3, Delta-type opioid receptor.
The target in another series is CYP2C19 (Homo sapiens, UniProt P33261). Described as §1. The format is ADME, Microsome. The settings on record: liver microsomes.
Another series addresses CYP2D6 (Homo sapiens, UniProt P10635). Described as §2. The format is ADME, Microsome. The settings on record: liver microsomes.
A further series concerns the target CYP3A4 (Homo sapiens, UniProt P08684). Described as §3. The format is ADME, Microsome. Conditions: liver microsomes.
A further series deals with CYP2C9 (Homo sapiens, UniProt P11712). The description is as §5. The format is ADME, Microsome. Conditions: liver microsomes.
Chain of CYP2C9 (P11712 whole entry): as above
For a further series, the target named is CYP1A2 (Homo sapiens, UniProt P05177). The description is as §4. The settings on record: liver microsomes. The format is ADME, Microsome.
Series [18] is described as follows: Half life in Sprague-Dawley rat plasma at 2 mg/kg, ip by LC-MS/MS analysis. The format is ADME, organism-based.
Series [19] can be described thus: Drug uptake in Sprague-Dawley rat brain at 1 mg/kg, ip by LC-MS/MS analysis. The format is ADME, organism-based. The settings on record: in vivo.
Series [20] in a line: Cmax in Sprague-Dawley rat plasma at 2 mg/kg, ip by LC-MS/MS analysis. The format is ADME, organism-based.
The nature of series [21]: Cmax in Sprague-Dawley rat plasma at 1 mg/kg, ip by LC-MS/MS analysis. The format is ADME, organism-based.
Series [22] in a line: Half life in Sprague-Dawley rat plasma at 1 mg/kg, ip by LC-MS/MS analysis. The format is ADME, organism-based.

Chain of Cytochrome P450 3A4 (P08684 whole entry): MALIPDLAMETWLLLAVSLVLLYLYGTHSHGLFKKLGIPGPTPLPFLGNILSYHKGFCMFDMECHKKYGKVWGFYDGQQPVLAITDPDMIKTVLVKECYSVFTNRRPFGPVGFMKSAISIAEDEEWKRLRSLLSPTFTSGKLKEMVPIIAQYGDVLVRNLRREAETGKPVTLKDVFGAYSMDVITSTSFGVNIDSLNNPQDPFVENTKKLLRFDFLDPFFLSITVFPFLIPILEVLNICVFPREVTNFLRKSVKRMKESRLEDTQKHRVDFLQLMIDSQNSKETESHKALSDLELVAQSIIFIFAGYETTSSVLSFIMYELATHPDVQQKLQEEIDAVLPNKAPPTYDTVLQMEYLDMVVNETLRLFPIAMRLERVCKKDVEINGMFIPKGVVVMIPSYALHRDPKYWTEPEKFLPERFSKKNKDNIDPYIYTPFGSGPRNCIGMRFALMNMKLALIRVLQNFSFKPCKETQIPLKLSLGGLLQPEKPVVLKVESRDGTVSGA
Chain of Mu-type opioid receptor (P35372 whole entry): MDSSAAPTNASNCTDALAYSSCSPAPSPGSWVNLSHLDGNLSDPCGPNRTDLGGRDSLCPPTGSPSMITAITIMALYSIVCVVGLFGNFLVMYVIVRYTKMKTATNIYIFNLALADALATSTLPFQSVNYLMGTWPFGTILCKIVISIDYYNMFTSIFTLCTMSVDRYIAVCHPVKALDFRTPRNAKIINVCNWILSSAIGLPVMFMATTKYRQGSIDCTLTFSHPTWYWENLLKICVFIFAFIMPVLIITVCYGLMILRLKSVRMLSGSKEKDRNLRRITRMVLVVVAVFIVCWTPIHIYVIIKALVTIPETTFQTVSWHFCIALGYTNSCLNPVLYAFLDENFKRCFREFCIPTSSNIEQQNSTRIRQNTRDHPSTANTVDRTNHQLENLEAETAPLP
Chain of CYP2D6 (P10635 whole entry): as the sequence (P10635 whole entry) above
Chain of CYP3A4 (P08684 whole entry): as the sequence (P08684 whole entry) above

Molecule `COc1cc(CNCCC2CCCCC2)ccc1Oc1ccc(C(N)=O)cn1` gave an IC50 on Mu-type opioid receptor of 3.16 nM.

With `NC(=O)c1ccc(Oc2ccc(CNCCc3ccccc3)cc2)nc1` [listing 1 of 2 here], the Imax in series [1] was found to be 71.5%; in [2] it was 64.3%; in series [4], 99.9%; in [5] it was 76.1%; in series [6] it was 230%; in [7], 83.9%. Moreover, in [3], the Emax is 99.4%.

As to `NC(=O)c1ccc(Oc2ccc(CNCCc3ccccc3)cc2)nc1` [listing 2 of 2 here], the Emax on hERG (KCNH2) stood at 63.7%. Besides, the IC50 worked out at 5550 nM in series [8]; 3020 nM in [9]; 1500 nM in series [10]; 3740 nM in series [12]; 4980 nM in series [15]. For the same molecule, the “inhibition (INH)” value worked out at 11.6% at Cytochrome P450 2C19, 72.7% at Cytochrome P450 2D6, 6.8% against Cytochrome P450 3A4 and 0.6% at Cytochrome P450 1A2. Further, the t1/2 in series [11] is given as 62.9 min; in [13] it was above 145 min. Also, the CLH in series [14] turned out to be 22.05 µL/min/mg.

The molecule `NC(=O)c1ccc(Oc2ccc(CNCCc3ccccc3)cc2)cc1` showed an IC50 in series [16] of 10 nM. Moreover, the “inhibition (INH)” value against Cytochrome P450 2C19 amounted to 27.7%; against Cytochrome P450 2D6 it was 66.4%; against Cytochrome P450 3A4, 0%; against Cytochrome P450 2C9 it was 9.5%; on Cytochrome P450 1A2, 0%. Further, the t1/2 in series [11] was 7.6 min; in [13], above 145 min.

Regarding `COc1cc(CNCCC(C)C)ccc1Oc1ccc(C(N)=O)cn1`, the results for the IC50 (in series [17]; on Mu-type opioid receptor) were 5.01 nM and 2 nM, respectively. The “inhibition (INH)” value against Cytochrome P450 2C19 was determined as 21.7%; on Cytochrome P450 2D6 it was 35.2%; on Cytochrome P450 3A4 it was 3.8%; against Cytochrome P450 2C9 it was 9.7%; against Cytochrome P450 1A2, 0%. In addition, the t1/2 in [11] and in series [13] was above 145 min in each case. Further, the Imax in series [6] was 187%.

For the molecule `CC(C)(NC(=O)C1=C(O)[C@@H]2Oc3c(O)ccc4c3[C@@]23CCN(CC2CC2)[C@H](C4)[C@]3(O)C1)c1nc(-c2ccccc2)no1` [NALDEMEDINE], half-maximal inhibition against Mu-type opioid receptor (IC50) required 3.16 nM.

As to `COc1cc(CNCCc2ccccc2)ccc1Oc1ccc(C(N)=O)cn1`, the “inhibition (INH)” value at Cytochrome P450 2C19 worked out at 1.6%; at Cytochrome P450 2D6, 61.2%; at Cytochrome P450 3A4, 7.8%; against Cytochrome P450 2C9, 13.1%; against Cytochrome P450 1A2, 1%. The t1/2 in series [11] was 41.9 min; in series [13], above 145 min. Moreover, the Imax in series [6] is 157%.

With `COc1cc(CNC2Cc3ccccc3C2)ccc1Oc1ccc(C(N)=O)cn1`, the IC50 was 0.631 nM in series [17], 10 nM in series [16] and 0.398 nM against Mu-type opioid receptor. Moreover, the Imax in [6] came to 168%.

For `NC(=O)c1ccc(Oc2ccc(CNCCc3ccccc3)cc2Cl)nc1`, the “inhibition (INH)” value against Cytochrome P450 2C19 was determined as 9.1%; at Cytochrome P450 2D6 it was 45.4%; at Cytochrome P450 3A4, 0%; on Cytochrome P450 2C9, 4.8%; on Cytochrome P450 1A2, 12.1%. Moreover, the t1/2 is 13.6 min in series [11] and 110.2 min in [13]. This molecule had an IC50 against Mu-type opioid receptor of 1.26 nM. For the same molecule, in series [6], the Imax was determined as 158%.

In [17], `C[C@H]1CN(CC[C@H](O)C2CCCCC2)CC[C@@]1(C)c1cccc(O)c1` had an IC50 of 3.98 nM. The inhibition at 10 µM on CYP2C19 stood at 35.1%; against CYP2D6, 86.4%; against CYP3A4, 0%; at CYP2C9 it was 11.9%; at CYP1A2, 14.5%. The half-life in series [11] (liver microsomes) came to 1.9 min; in series [13] (liver microsomes), 6.4 min. The Imax in series [6] amounted to 155%.

Consider `C=CCN1CC[C@]23c4c5ccc(O)c4O[C@H]2C(=O)CC[C@@]3(O)[C@H]1C5` [NALOXONE], for which, in [18], the half-life is 20.9 min.

Regarding `Cl.NC(=O)c1ccc(Oc2ccc(CNCCc3ccccc3)cc2)nc1`, the Drug uptake result in [19] is “Not_active”. The figures for the half-life in series [18] and in series [22] were 20.9 min and 91.2 min, respectively. Further, the Cmax in series [20] was 182 ng/mL; in [21], 92.8 ng/mL.

For the molecule `C=CCN1CC[C@]23c4c5ccc(O)c4O[C@H]2[C@@H](OCCOCCOCCOCCOCCOCCOCCOC)CC[C@@]3(O)[C@H]1C5`, the Imax in series [6] worked out at 103%.

With `C=CC[N+]1(C)CC[C@]23c4c5ccc(O)c4O[C@H]2C(=O)CC[C@@]3(O)[C@H]1C5` (stereo partly drawn) [NALOXONE METHIODIDE], the 50% inhibitory concentration (IC50) against Mu-type opioid receptor is 631 nM.

`C=C1CC[C@@]2(O)[C@H]3Cc4ccc(O)c5c4[C@@]2(CCN3CC2CC2)[C@H]1O5`: the “inhibition (INH)” value against Cytochrome P450 2C19 is given as 0%; at Cytochrome P450 2D6, 68.2%; at Cytochrome P450 3A4, 0.2%; at Cytochrome P450 2C9, 0%; on Cytochrome P450 1A2 it was 0%. Moreover, the values for the t1/2 in series [11] and in series [13] were 87.1 min and above 145 min, respectively.

As for `NC(=O)c1ccc(Oc2ccc(CNCCc3ccccc3)cc2OCc2ccccc2)nc1`, the IC50 was 3.98 nM in series [17] and 3.16 nM on Mu-type opioid receptor. For the same molecule, the Imax in series [6] amounted to 152%.
